Measured values as given in US10047083B2, “Dihydropyrimidinoisoquinolinones and pharmaceutical compositions thereof for the treatment of inflammatory disorders” (GALAPAGOS NV, priority 2011, dated 2018).

Target: T1, GPR84 (Homo sapiens, UniProt Q9NQS5)
T1 construct: expressed in transfected cells; membranes used
Experiment: GTPγS binding assay (GPR84)
Type: biochemical
Conditions: membranes from stable cell line over expressing GPR84; 3,3′ di indolylmethane at EC80
Procedure: 1.1. Cell Based Assay: GTp-γS Binding Assay.
The following assay can be used for determination of GPR84 activation.
The assay is performed in a 96 well plate where the following reagents are added. […] In a last step, 30 μL of a mixture consisting of membranes-GTPγS-SpA beads is added [mixture consists of 20 μg/well membranes derived from stable cell line over expressing GPR84 (membranes are pre-incubated with 0.1 μM GDP for 15 min at 4° C.), 0.1 nM [^35S]GTPγS (Perkin Elmer, NEG030) and 0.5 mg/well PVT-WGA SpA beads (Perkin Elmer, RPNQ0001)]. All components are diluted in assay buffer containing 20 mM HEPES pH 7.4; 5 mM MgCl2; 250 mM NaCl; 0.05% BSA; 75 ug/mL saponin. Reactions are incubated for 90 min at room temperature followed by centrifugation at 2000 rpm during 15 min. Plates are read on a Topcount reader (Perkin Elmer) immediately after centrifugation (readout time, 1 min/well).

T1 sequence (Q9NQS5 whole entry): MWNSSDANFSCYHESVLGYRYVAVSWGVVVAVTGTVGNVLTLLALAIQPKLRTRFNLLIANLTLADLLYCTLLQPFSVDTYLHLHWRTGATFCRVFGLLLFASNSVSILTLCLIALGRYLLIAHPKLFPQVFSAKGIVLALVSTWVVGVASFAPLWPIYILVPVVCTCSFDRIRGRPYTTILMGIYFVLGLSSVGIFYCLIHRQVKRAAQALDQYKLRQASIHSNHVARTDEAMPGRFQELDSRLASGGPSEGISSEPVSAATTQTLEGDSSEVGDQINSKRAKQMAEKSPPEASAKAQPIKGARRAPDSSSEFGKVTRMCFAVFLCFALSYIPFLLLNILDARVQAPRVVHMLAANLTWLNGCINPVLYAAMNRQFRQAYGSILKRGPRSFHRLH

Row | SMILES | IC50
1 | CC1(COCc2ccc3c(c2)CCn2c-3cc(OC[C@@H]3COCCO3)nc2=O)COC1 [Compound 125, 2-((S)-1-[1,4]dioxan-2-ylmethoxy)-9-(3-methyl-oxetan-3-ylmethoxymethyl)-6,7-dihydro-pyrimido[6,1-a]isoquinolin-4-one] | 501 to 1000 nM
2 | CCCCC(CC)CNc1ccc2c(c1)CCn1c-2cc(OC[C@@H]2COCCO2)nc1=O (stereo partly drawn) [Compound 128, 2-((S)-1-[1,4]dioxan-2-ylmethoxy)-9-(2-ethyl-hexylamino)-6,7-dihydro-pyrimido[6,1-a]isoquinolin-4-one] | 101 to 500 nM
3 | COCCOc1ccc2c(c1)CCn1c-2cc(OC[C@@H]2COCCO2)nc1=O [Compound 129, 2-((S)-1-[1,4]dioxan-2-ylmethoxy)-9-(2-methoxy-ethoxy)-6,7-dihydro-pyrimido[6,1-a]isoquinolin-4-one] | 101 to 500 nM
4 | CCOCCOc1ccc2c(c1)CCn1c-2cc(OC[C@@H]2COCCO2)nc1=O [Compound 130, 2-((S)-1-[1,4]dioxan-2-ylmethoxy)-9-(2-ethoxy-ethoxy)-6,7-dihydro-pyrimido[6,1-a]isoquinolin-4-one] | 101 to 500 nM
5 | O=c1nc(OC[C@@H]2COCCO2)cc2n1CCc1cc(OCCF)ccc1-2 [Compound 132, 2-((S)-1-[1,4]dioxan-2-ylmethoxy)-9-(2-fluoro-ethoxy)-6,7-dihydro-pyrimido[6,1-a]isoquinolin-4-one] | 501 to 1000 nM
6 | CCOCCOCC#Cc1ccc2c(c1)CCn1c-2cc(OC[C@@H]2COCCO2)nc1=O [Compound 134, 2-((S)-1-[1,4]dioxan-2-ylmethoxy)-9-[3-(2-ethoxy-ethoxy)-prop-1-ynyl]-6,7-dihydro-pyrimido[6,1-a]isoquinolin-4-one] | 101 to 500 nM
7 | O=c1nc(OC[C@@H]2COCCO2)cc2n1CCc1cc(C#CCOCCF)ccc1-2 [Compound 135, 2-((S)-1-[1,4]dioxan-2-ylmethoxy)-9-[3-(2-fluoro-ethoxy)-prop-1-ynyl]-6,7-dihydro-pyrimido[6,1-a]isoquinolin-4-one] | 101 to 500 nM
8 | CC(C)(C)CCCOc1ccc2c(c1)CCn1c-2cc(OC[C@@H]2COCCO2)nc1=O [Compound 141, 9-(4,4-dimethyl-pentyloxy)-2-((S)-1-[1,4]dioxan-2-ylmethoxy)-6,7-dihydro-pyrimido[6,1-a]isoquinolin-4-one] | 101 to 500 nM
9 | O=c1nc(OC[C@@H]2COCCO2)cc2n1CCc1cc(NC3CCCCC3)ccc1-2 [Compound 145, 9-cyclohexylamino-2-((S)-1-[1,4]dioxan-2-ylmethoxy)-6,7-dihydro-pyrimido[6,1-a]isoquinolin-4-one] | 101 to 500 nM
10 | O=c1nc(OC[C@@H]2COCCO2)cc2n1CCc1cc(CCCCO)ccc1-2 [Compound 151, 2-((S)-1-[1,4]dioxan-2-ylmethoxy)-9-(4-hydroxy-butyl)-6,7-dihydro-pyrimido[6,1-a]isoquinolin-4-one] | 101 to 500 nM
11 | CN(c1ccc2c(c1)CCn1c-2cc(OC[C@@H]2COCCO2)nc1=O)C1CCCCC1 [Compound 152, 9-(cyclohexyl-methyl-amino)-2-((S)-1-[1,4]dioxan-2-ylmethoxy)-6,7-dihydro-pyrimido[6,1-a]isoquinolin-4-one] | 501 to 1000 nM
12 | O=c1nc(OC[C@@H]2COCCO2)cc2n1CCc1cc(NCC3CCCCC3)ccc1-2 [Compound 153, 9-(cyclohexylmethyl-amino)-2-((S)-1-[1,4]dioxan-2-ylmethoxy)-6,7-dihydro-pyrimido[6,1-a]isoquinolin-4-one] | 101 to 500 nM
13 | O=c1nc(OC[C@@H]2COCCO2)cc2n1CCc1cc(NCC3CCOCC3)ccc1-2 [Compound 154, 2-((S)-1-[1,4]dioxan-2-ylmethoxy)-9-[(tetrahydro-pyran-4-ylmethyl)-amino]-6,7-dihydro-pyrimido[6,1-a]isoquinolin-4-one] | 501 to 1000 nM

The next lines start with the values.

Row | IC50 | SMILES
14 | 101 to 500 nM | C=CCOc1ccc2c(c1)CCn1c-2cc(OC[C@H]2COCCO2)nc1=O [Compound 117, 9-allyloxy-2-((R)-1-[1,4]dioxan-2-ylmethoxy)-6,7-dihydro-pyrimido[6,1-a]isoquinolin-4-one]
15 | 101 to 500 nM | C=CCOc1ccc2c(c1)CCn1c-2cc(OC[C@@H]2COCCO2)nc1=O [Compound 118, 9-allyloxy-2-((S)-1-[1,4]dioxan-2-ylmethoxy)-6,7-dihydro-pyrimido[6,1-a]isoquinolin-4-one]
16 | 101 to 500 nM | O=c1nc(OC[C@H]2COCCO2)cc2n1CCc1cc(COC3CCOCC3)ccc1-2 [Compound 119, 2-((R)-1-[1,4]dioxan-2-ylmethoxy)-9-(tetrahydro-pyran-4-yloxymethyl)-6,7-dihydro-pyrimido[6,1-a]isoquinolin-4-one]
17 | 101 to 500 nM | O=c1nc(OCC2COCCO2)cc2n1CCc1cc(C#CCNCc3cccnc3)ccc1-2 (centres unmarked) [Compound 120, 2-([1,4]dioxan-2-ylmethoxy)-9-{3-[(pyridin-3-ylmethyl)-amino]-prop-1-ynyl}-6,7-dihydro-pyrimido[6,1-a]isoquinolin-4-one]
18 | 101 to 500 nM | O=c1nc(OC[C@@H]2COCCO2)cc2n1CCc1cc(COC3COC3)ccc1-2 [Compound 124, 2-((S)-1-[1,4]dioxan-2-ylmethoxy)-9-(oxetan-3-yloxymethyl)-6,7-dihydro-pyrimido[6,1-a]isoquinolin-4-one]
19 | 0.01 to 100 nM | CC(C)C(O)CCc1ccc2c(c1)CCn1c-2cc(OC[C@@H]2COCCO2)nc1=O (stereo partly drawn) [Compound 127, 2-((S)-1-[1,4]dioxan-2-ylmethoxy)-9-(3-hydroxy-4-methyl-pentyl)-6,7-dihydro-pyrimido[6,1-a]isoquinolin-4-one]
20 | 0.01 to 100 nM | O=c1nc(OC[C@@H]2COCCO2)cc2n1CCc1cc(OCC3CC3)ccc1-2 [Compound 131, 9-cyclopropylmethoxy-2-((S)-1-[1,4]dioxan-2-ylmethoxy)-6,7-dihydro-pyrimido[6,1-a]isoquinolin-4-one]
21 | 0.01 to 100 nM | CC(C)(C)COCc1ccc2c(c1)CCn1c-2cc(OC[C@@H]2COCCO2)nc1=O [Compound 136, 9-(2,2-dimethyl-propoxymethyl)-2-((S)-1-[1,4]dioxan-2-ylmethoxy)-6,7-dihydro-pyrimido[6,1-a]isoquinolin-4-one]
22 | 0.01 to 100 nM | O=c1nc(OC[C@@H]2COCCO2)cc2n1CCc1cc(COC3CCCCC3)ccc1-2 [Compound 137, 9-cyclohexyloxymethyl-2-((S)-1-[1,4]dioxan-2-ylmethoxy)-6,7-dihydro-pyrimido[6,1-a]isoquinolin-4-one]
23 | 0.01 to 100 nM | O=c1nc(OC[C@@H]2COCCO2)cc2n1CCc1cc(COCC3CC3)ccc1-2 [Compound 138, 9-cyclopropylmethoxymethyl-2-((S)-1-[1,4]dioxan-2-ylmethoxy)-6,7-dihydro-pyrimido[6,1-a]isoquinolin-4-one]
24 | 0.01 to 100 nM | COC(CCc1ccc2c(c1)CCn1c-2cc(OC[C@@H]2COCCO2)nc1=O)C(C)C (stereo partly drawn) [Compound 142, 2-((S)-1-[1,4]dioxan-2-ylmethoxy)-9-(3-methoxy-4-methyl-pentyl)-6,7-dihydro-pyrimido[6,1-a]isoquinolin-4-one]
25 | 0.01 to 100 nM | CC(C)(C)C(O)CCc1ccc2c(c1)CCn1c-2cc(OC[C@@H]2COCCO2)nc1=O (stereo partly drawn) [Compound 146, 2-((S)-1-[1,4]dioxan-2-ylmethoxy)-9-(3-hydroxy-4,4-dimethyl-pentyl)-6,7-dihydro-pyrimido[6,1-a]isoquinolin-4-one]
26 | 0.01 to 100 nM | COC(C)CCc1ccc2c(c1)CCn1c-2cc(OC[C@@H]2COCCO2)nc1=O (stereo partly drawn) [Compound 148, 2-((S)-1-[1,4]dioxan-2-ylmethoxy)-9-(3-methoxy-butyl)-6,7-dihydro-pyrimido[6,1-a]isoquinolin-4-one]
